Data on four compounds can be found in patent US6436924B1, “Antihistamine leukotriene combinations” (ASTA Medica AG, priority 2000, dated 2002).

The assay relates to nasal mucosal permeability in actively sensitized and topically provoked brown Norway rats. Briefly: Rhinitis model: nasal mucosal permeability (Evans Blue plasma extravasation) after ovalbumin provocation. Format: in vivo. The source says:
The following pharmacological investigation describes the action of azelastine and montelukast on their own and in combination on a rhinitis model on brown Norway rats. The brown Norway rats were actively sensitized by double i.p. injection of a suspension of ovalbumin and aluminum hydroxide in physiological saline solution on two successive days. Three weeks after sensitization, a catheter was tied into the trachea of the animals in orthograde manner under sodium thiopental anesthesia to maintain the respiration of the animals and a further catheter was advanced in a retrograde manner through the trachea up to the internal opening of the choanas for the perfusion of the nasal cavities and fixed. The nasal perfusate can thus trickle out through the nasal cavities and be accepted by a fraction collector. The test substances were either suspended in Tylose (montelukast) or dissolved in physiological saline solution (azelastine) and injected intraperitoneally 60 min before allergen provocation. PBS was perfused through the nasal cavity for 30 min using a roller pump (perfusion rate 0.5 ml/min) to rinse mucus away from the nose. In the case of topical application, the test substances are added to the perfusate in molar concentration and the solution is perfused through the nose for 30 min before allergen provocation. The plasma marker Evans Blue (1 ml/animal each of a 1% strength solution in PBS) was then injected into the jugular vein. The perfusion was collected during a 15 min break. The allergen provocation (challenge) was then carried out by perfusion of the nasal cavity with a solution of ovalbumin in PBS (10 mg/ml of ovalbumin in PBS) for 60 min, during which the perfusate was collected in the fraction collector in 15 min fractions. The total amount of the samples/animal was 5. The samples were centrifuged and then applied to microtiter plates and measured at a wavelength of 620 nm using the Digiscan photometer. The blank values were automatically subtracted. The course of action over 60 min was calculated using an AUC program. The substance action of the preparation group was calculated in % against vehicle controls.
An increased mucosal permeability after allergen provocation is to be assessed as a sign of the release of messengers such as histamine and leukotrienes. After antigen contact, this phenomenon occurs even in allergic people and is manifested by increased fluid secretion and nasal blockage.

[1] abbreviates: 0.1 mg/kg i.p., 60 min before allergen provocation.
Where [2] appears, read: 1 mg/kg i.p., 60 min before allergen provocation.

As to `CN1CCCC(n2nc(Cc3ccc(Cl)cc3)c3ccccc3c2=O)CC1` (centres unmarked) [Azelastine], the “Inhibitory action in % (nasal mucosal permeability)” value (shortened to “Inhibitory action in %”) (0.01 mg/kg i.p., 60 min before allergen provocation) stood at 11%; the “Inhibitory action in %” value under setting [1] stood at 39%; the “Inhibitory action in %” value (0.3 mg/kg i.p., 60 min before allergen provocation) is listed as 42%; the “Inhibitory action in %” value under setting [2] was determined as 47%; the “Inhibitory action in %” value (topical application in the perfusate, 0.003 mmol/l) came to 3%; the “Inhibitory action in %” value (topical application in the perfusate, 0.01 mmol/l) was 40%. Moreover, the “Inhibitory action in %” value (topical application in the perfusate, 0.03 mmol/l) came out at 60%. Where the note is “topical application, concentrations of 0.003 to 0.03 μmol/l”, the “inhibition of the mucosal plasma extravasation” value was “strong inhibition”.
`COc1ccc2c(c1)c(O)nn2Cc1ccc(OCc2ccc3ccccc3n2)cc1.Cl.Cl` [AWD 23-115, 1-[4-(quinolin-2-ylmethoxy)benzyl]-5-methoxy-1H-indazol-3-ol dihydrochloride]: the “dose-dependent inhibition of the vascular permeability” value (dose range of 0.03 to 10 mg/kg i.p.) was 37-54%. The “Inhibitory action in %” value (topical application in the perfusate, 0.1 mmol/l) came out at 12%; the “Inhibitory action in %” value (topical application in the perfusate, 0.3 mmol/l) was 32%; the “Inhibitory action in %” value (topical application in the perfusate, 1 mmol/l) came to 49%. The “inhibition of the vascular permeability” value (topical application, 0.3 μmol/l) stood at 32% and the “inhibition of the vascular permeability” value (topical application, 1 μmol/l) came to 49%.
`O=C(O)[C@@H](c1ccc(OCc2ccc3ccccc3n2)cc1)C1CCCC1` [Bay X 1005]: the “Inhibitory action in %” value under setting [1] was 31%.
`CC(C)(O)c1ccccc1CC[C@@H](SCC1(CC(=O)O)CC1)c1cccc(/C=C/c2ccc3ccc(Cl)cc3n2)c1` [Montelukast]: the “Inhibitory action in %” value is, setting by setting: under setting [1], 7%; under setting [2], 26%; (3 mg/kg i.p., 60 min before allergen provocation) 39%; (10 mg/kg i.p., 60 min before allergen provocation) 44%; (30 mg/kg i.p., 60 min before allergen provocation) 58%.
